We go through four molecules from ChEMBL document CHEMBL1158295, “Five new monotetrahydrofuran ring acetogenins from the leaves of Annona muricata” (J Nat Prod, 1996).

One data set relates to HT-29. The experiment in a line: Cytotoxicity against human HT29 cells. It counts as functional. The conditions noted are these: read-out: ED50 (the source's name).
A further data set deals with MIA PaCa-2. The experiment in a line: Cytotoxicity against human MIAPaCa2 cells. In kind it is functional. Particulars: read-out: ED50 (the source's name).
A further data set deals with A549. The experiment in a line: Cytotoxicity against human A549 cells. In kind it is functional. Particulars: read-out: ED50 (the source's name).
For a further data set, the system named is A498. The experiment in a line: Cytotoxicity against human A498 cells. It counts as functional. Particulars: read-out: ED50 (the source's name).
Another data set has as its system MCF7. The experiment in a line: Cytotoxicity against human MCF7 cells. It counts as functional. The conditions noted are these: read-out: ED50 (the source's name).
The subject of the next data set is Artemia. The experiment in a line: Toxicity to brine shrimp. It counts as organism-based. The conditions noted are these: in vivo.
Another data set has as its system PC-3. The experiment in a line: Cytotoxicity against human PC3 cells. In kind it is functional. The conditions noted are these: read-out: ED50 (the source's name).

Converted amounts (≈) assume the structure as drawn.

`COc1cccc2c1C(=O)c1c(O)c3c(c(O)c1C2=O)C[C@@](O)(C(=O)CO)C[C@@H]3O[C@H]1C[C@H](N)[C@H](O)[C@H](C)O1` [DOXORUBICIN]: the EC50 in the data set on HT-29 came to 0.0498 µg/mL (≈ 0.0916 µM); in the data set with MIA PaCa-2, 0.00423 µg/mL (≈ 0.00778 µM); with A549, 0.00428 µg/mL (≈ 0.00787 µM); in the data set on A498 it was 0.0462 µg/mL (≈ 0.085 µM); in the data set on MCF7, 0.495 µg/mL (≈ 0.911 µM); in the data set on PC-3 it was 0.0583 µg/mL (≈ 0.107 µM). For the same molecule, the LC50 with Artemia came to 2.57 ×10⁻¹ ppm.
As for `CCCCCCCCCCCC[C@@H](O)[C@H](O)CC[C@H](O)[C@@H]1CC[C@@H](C[C@H](O)CCCCC[C@@H](O)CC2=C[C@H](C)OC2=O)O1` [ANNOPENTOCIN A], the EC50 with HT-29 came out at 1.63 µg/mL (≈ 2.66 µM); in the data set with MIA PaCa-2 it was 0.0358 µg/mL (≈ 0.0584 µM); with A549, 0.171 µg/mL (≈ 0.279 µM); with A498 it was 0.607 µg/mL (≈ 0.99 µM); in the data set on MCF7, 17.9 µg/mL (≈ 29.3 µM); in the data set with PC-3, 1.14 µg/mL (≈ 1.86 µM). Further, the LC50 in the data set with Artemia came out at 8.9 ppm.
Consider `CCCCCCCCCCCC[C@H](O)[C@@H](O)CC[C@H](O)[C@@H]1CC[C@@H](C[C@H](O)CCCCC[C@@H](O)CC2=C[C@H](C)OC2=O)O1` [ANNOPENTOCIN B], for which the EC50 in the data set on HT-29 came to 1.64 µg/mL (≈ 2.68 µM); in the data set with MIA PaCa-2 it was 0.162 µg/mL (≈ 0.264 µM); with A549 it was 0.0274 µg/mL (≈ 0.0447 µM); with A498, 0.379 µg/mL (≈ 0.618 µM); in the data set on MCF7, 3.56 µg/mL (≈ 5.81 µM); with PC-3 it was 0.212 µg/mL (≈ 0.346 µM). The LC50 in the data set on Artemia is 11.2 ppm.
For the molecule `CCCCCCCCCCCC[C@H](O)[C@H](O)CC[C@H](O)[C@@H]1CC[C@@H](C[C@H](O)CCCCC[C@@H](O)CC2=C[C@H](C)OC2=O)O1` [ANNOPENTOCIN C], the EC50 was 1.24 µg/mL (≈ 2.02 µM) in the data set on HT-29; 0.428 µg/mL (≈ 0.698 µM) in the data set with MIA PaCa-2; 0.0206 µg/mL (≈ 0.0336 µM) in the data set on A549; 0.258 µg/mL (≈ 0.421 µM) in the data set with A498; 2.97 µg/mL (≈ 4.85 µM) in the data set on MCF7; 0.228 µg/mL (≈ 0.372 µM) in the data set on PC-3. Also, in the data set with Artemia, the LC50 stood at 13.8 ppm.
